Measured values: ChEMBL document CHEMBL4699409, “Synthesis, evaluation and molecular modelling of piceatannol analogues as arginase inhibitors” (RSC Med Chem, 2020)
pIC50, pKi: −log10 of the molar value.

Legend:
Arginase-1 [1] = target: T1, Arginase-1 (Homo sapiens, UniProt P05089); assay: Inhibition of recombinant human ARG1 expressed in CHO-K1 cells assessed as reduction in urea level incubated for 24 hrs by colorimetric assay; assay type: cell-based
T1 sequence (P05089 whole entry): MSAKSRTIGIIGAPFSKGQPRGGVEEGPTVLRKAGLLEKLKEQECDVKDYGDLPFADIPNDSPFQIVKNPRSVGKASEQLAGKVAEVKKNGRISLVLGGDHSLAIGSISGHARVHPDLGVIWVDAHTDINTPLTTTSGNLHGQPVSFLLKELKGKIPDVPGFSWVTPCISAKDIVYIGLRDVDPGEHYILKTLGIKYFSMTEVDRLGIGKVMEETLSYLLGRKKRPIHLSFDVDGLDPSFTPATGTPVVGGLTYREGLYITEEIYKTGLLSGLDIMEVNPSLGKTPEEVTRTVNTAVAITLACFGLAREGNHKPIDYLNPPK

Arginase-1 [2] = target: T2, Arginase-1 (Bos taurus, UniProt Q2KJ64); assay: Inhibition of recombinant bovine liver ARGI using L-arginine as substrate incubated for 60 mins by spectroscopic analysis
T2 sequence (Q2KJ64 whole entry): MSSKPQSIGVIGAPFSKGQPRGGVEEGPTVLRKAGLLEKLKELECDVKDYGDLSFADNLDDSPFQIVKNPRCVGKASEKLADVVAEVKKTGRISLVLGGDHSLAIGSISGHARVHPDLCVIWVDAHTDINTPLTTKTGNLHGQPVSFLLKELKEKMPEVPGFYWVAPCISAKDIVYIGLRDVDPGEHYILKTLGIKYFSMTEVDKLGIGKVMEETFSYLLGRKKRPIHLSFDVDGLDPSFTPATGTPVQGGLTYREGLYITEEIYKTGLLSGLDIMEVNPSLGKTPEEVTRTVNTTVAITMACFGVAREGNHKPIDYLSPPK

Arginase-1 [3] = target: T2, Arginase-1; assay: Mixed type inhibition of recombinant bovine liver ARGI using L-arginine as substrate incubated for 60 mins by Dixon plot analysis
Arginase-1 [4] = target: T1, Arginase-1; assay: Inhibition of recombinant human liver ARGI using L-arginine as substrate incubated for 60 mins by spectroscopic analysis
Arginase-1 [5] = target: T2, Arginase-1; assay: Mixed type inhibition of recombinant bovine liver ARGI using L-arginine as substrate incubated for 60 mins by Lineweaver-Burk plot analysis
Arginase-1 [6] = target: T2, Arginase-1; assay: Mixed type inhibition of recombinant bovine liver ARGI using L-arginine as substrate incubated for 60 mins by Cornish-Bowden plot analysis

pIC50 (Arginase-1 [2])	SMILES	also measured
	N[C@@H](CCCCB(O)O)C(=O)O	pIC50 (Arginase-1 [1]): 4.77
3.79	NCc1ccc(O)c(O)c1	
3.44	Oc1ccc(O)c(O)c1	
3.97	OCc1ccc(O)c(O)c1	
3.65	Oc1ccc(CNCc2ccc3c(c2)OCO3)cc1O	
4.08	Oc1cccc(NCc2ccc(O)c(O)c2)c1	
3.62	Oc1ccc(NCc2ccc(O)c(O)c2)cc1	
3.97	O=C(O)c1cc(O)cc(NCc2ccc(O)c(O)c2)c1	
3.56	Oc1ccc(CNCc2cc(Cl)cc(Cl)c2)cc1O	
3.52	COc1cccc(CNCc2ccc(O)c(O)c2)c1	
3.32	Nc1ccc(O)c(O)c1	
4.12	Oc1ccc(CNc2ccc(O)c(O)c2)cc1O	pKi (Arginase-1 [3]): 4.09; pIC50 (Arginase-1 [4]): 4.05; pIC50 (Arginase-1 [1]): 3.10; pKi (Arginase-1 [5]): 4.09; pKi (Arginase-1 [6]): 4.09
3.73	O=C(O)c1cc(NCc2ccc(O)c(O)c2)ccc1O	
3.81	COc1ccc(NCc2ccc(O)c(O)c2)cc1	
3.33	Oc1ccc(CNCCN2CCOCC2)cc1O	
3.73	COc1cccc(NCc2ccc(O)c(O)c2)c1	
3.48	Oc1ccc(CNCc2cccc(Cl)c2)cc1O	
3.41	COc1ccc(CNCc2ccc(O)c(O)c2)cc1	
3.56	Oc1cccc(Br)c1O	
3.44	CCOC(=O)C(NCc1ccc(O)c(O)c1)C(=O)OCC	
3.79	Oc1ccc(CNc2ccccc2)cc1O	
3.46	NCCCNCc1ccc(O)c(O)c1	
3.84	Oc1ccc(CNCc2ccccc2)cc1O	
3.50	Oc1ccc(CNCCc2c[nH]cn2)cc1O	
3.85	Oc1cc(O)cc(NCc2ccc(O)c(O)c2)c1	
3.88	O=C(O)/C=C/c1ccc(O)c(O)c1 [CAFFEIC ACID]	
3.89	NCCc1ccc(O)c(O)c1 [DOPAMINE]	
3.55	COC(=O)c1ccc(O)c(O)c1 [METHYL PROTOCATECHUATE]	
5.57	N=C(NO)NCC[C@H](N)C(=O)O [NOR-NOHA]	
4.33	Oc1cc(O)cc(/C=C/c2ccc(O)c(O)c2)c1 [PICEATANNOL]	pKi (Arginase-1 [3]): 3.87; pIC50 (Arginase-1 [4]): 4.16; pIC50 (Arginase-1 [1]): 2.93; pKi (Arginase-1 [5]): 3.87; pKi (Arginase-1 [6]): 3.87

SMILES	pIC50 (Arginase-1 [2])	also measured
Oc1ccc(CNCCc2ccccc2)cc1O	3.44	
Oc1ccccc1O [CATECHOL]	3.91	
